The record followed here is patent US20090036547A1 (priority 2005, published 2009).

The test system of test [1] is Anopheles gambiae (susceptible) KWA larvae. The experiment in a line: WHO standard larval bioassay. It counts as in vivo. Particulars: Example 2, An. Gambiae Susceptible, 10% working dilution in ethanol (mixture 5%+5%), 24 hours.
Test [2] has as its system Anopheles stephensi (susceptible) Beech larvae. The test can be described thus: WHO standard larval bioassay. Particulars: Example 2, An. Stephensi Susceptible, 10% working dilution in ethanol (mixture 5%+5%), 24 hours. It counts as in vivo.
Test [3] relates to Anopheles albimanus (susceptible) Mexico larvae. The test can be described thus: WHO standard larval bioassay. Conditions: Example 2, An. Albimanus Susceptible, 10% working dilution in ethanol (mixture 5%+5%), 24 hours. It counts as in vivo.
Test [4] concerns Aedes aegypti (susceptible) AeAe larvae. The test can be described thus: WHO standard larval bioassay. In kind it is in vivo. Particulars: Example 2, Ae. Aegypti Susceptible, 10% working dilution in ethanol (mixture 5%+5%), 24 hours.
The test system of test [5] is Aedes albopictus (susceptible) Albo larvae. The experiment in a line: WHO standard larval bioassay. In kind it is in vivo. Conditions: Example 2, Ae. albopictus Susceptible, 10% working dilution in ethanol (mixture 5%+5%), 24 hours.
For test [6], the system named is Culex quinquefasciatus (susceptible) Muheza larvae. The experiment in a line: WHO standard larval bioassay. It counts as in vivo. Particulars: Example 2, Cx. quinquefasciatus Susceptible, 10% working dilution in ethanol (mixture 5%+5%), 24 hours.
Test [7] deals with Culex pipiens pipiens (susceptible) Pip larvae. The experiment in a line: WHO standard larval bioassay. It counts as in vivo. Conditions: Example 2, Cx. pipiens Susceptible, 10% working dilution in ethanol (mixture 5%+5%), 24 hours.
Test [8] relates to Anopheles gambiae (DDT resistant) ZANDS larvae. The experiment in a line: WHO standard larval bioassay. Conditions: Example 2, An. Gambiae DDT Resistant, 10% working dilution in ethanol (mixture 5%+5%), 24 hours. In kind it is in vivo.
Test [9] has as its system Anopheles gambiae (Pyrethroid Resistant) VKPR larvae. The test can be described thus: WHO standard larval bioassay. It counts as in vivo. Particulars: Example 2, An. Gambiae Py. Resistant, 10% working dilution in ethanol (mixture 5%+5%), 24 hours.
Test [10] concerns Anopheles stephensi (Organophosphate Resistant) ST Mal larvae. The test can be described thus: WHO standard larval bioassay. Particulars: Example 2, An. Stephensi OP Resistant, 10% working dilution in ethanol (mixture 5%+5%), 24 hours. It counts as in vivo.
Test [11] concerns Anopheles albimanus (Carbamate Resistant) FEST larvae. The test can be described thus: WHO standard larval bioassay. It counts as in vivo. Conditions: Example 2, An. albimanus Carbamate Resistant, 10% working dilution in ethanol (mixture 5%+5%), 24 hours.
Test [12] has as its system range of mosquito species (larvae). The test can be described thus: WHO standard larval bioassay, summary over all strains. In kind it is in vivo, Anopheles, Aedes, Culex. Particulars: Example 2, LD90 similar in susceptible and resistant strains.

Molecules are shown by their SMILES.

For `Cc1ccc(C(C)C)c(O)c1` [Thymol], the LD90 in [1] was 0.177 mL; in [2], 0.112 mL; in [3] it was 0.115 mL; in test [4] it was 0.302 mL; in test [5] it was 0.172 mL; in test [6] it was 0.330 mL. Further, the LD90 was 0.135 mL in test [7]; 0.235 mL in [8]; 0.261 mL in [9]; 0.177 mL in test [10]; 0.224 mL in test [11]. In addition, in [12], the “cross resistance to existing insecticide classes (pyrethroids/OP's/Carbamates/Organochlorines)” value is reported as “no evidence of cross resistance”.
For `Cc1ccc(C(C)C)cc1` [p-Cymene, p-cymene], the LD90 in test [1] came out at 0.140 mL; in test [2], 0.085 mL; in test [3] it was 0.088 mL; in [4], 0.198 mL; in test [5], 0.150 mL; in test [6], 0.215 mL. Also, the LD90 in [7] turned out to be 0.120 mL; in test [8], 0.204 mL; in [9], 0.202 mL; in [10] it was 0.134 mL; in test [11], 0.191 mL. The “cross resistance to existing insecticide classes (pyrethroids/OP's/Carbamates/Organochlorines)” value in [12] is on record as “no evidence of cross resistance”.
